This passage reports GI50 and TGI results from PubChem BioAssay (NCI).

Some test systems named below: 786-0 renal; HS 578T breast; LOX IMVI melanoma; MCF7 breast; NCI-H226 lung; NCI-H23 lung; NCI-H522 lung; SF-539 CNS; SW-620 colon; TK-10 renal.
What all share (assay): growth of human tumour cells (NCI), 48 h

“And” between values parts separate entries of the source, which are not always exact repeats. Equal entries are not always repeated.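 How tested: cells in 96-well plates exposed to compound for 48 hours at five concentrations. GI50 = concentration required for 50% inhibition of growth. The concentration for full growth arrest is given as TGI.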 Where only a bound is given, the exact number is not on record here.

In the case of `Cc1c(C(=O)c2ccccc2)[n+](=O)c2cc(F)c(F)cc2n1[O-]`, the GI50 with 786-0 renal was 16.6 µM; in the experiment on HS 578T breast, 2.08 µM; in the experiment on LOX IMVI melanoma, 1.61 µM; in the experiment on MCF7 breast, 4.35 µM; in the experiment on NCI-H226 lung, 2.67 µM; in the experiment on NCI-H23 lung, 1.72 µM. Also, the GI50 in the experiment on NCI-H522 lung is 1.93 µM; in the experiment on SF-539 CNS it was 3.94 µM; in the experiment with SW-620 colon it was 1.43 µM; in the experiment with TK-10 renal it was 1.36 µM. Further, the TGI is 31.2 µM in the experiment on 786-0 renal; 4.68 µM with HS 578T breast; 3.01 µM with LOX IMVI melanoma; 21 µM in the experiment with MCF7 breast; 4.34 µM in the experiment on NCI-H226 lung; 3.16 µM in the experiment on NCI-H23 lung. The TGI with NCI-H522 lung came to 3.88 µM; with SF-539 CNS, 12.9 µM; with SW-620 colon, 3.14 µM; in the experiment with TK-10 renal, 17.5 µM.
Turning to `CCn1ncc(N=O)c1N`, the TGI with 786-0 renal, in the experiment with HS 578T breast, with LOX IMVI melanoma, in the experiment on MCF7 breast, with NCI-H23 lung and in the experiment with NCI-H522 lung was more than 100 µM in each case. Further, the TGI with SF-539 CNS, in the experiment on SW-620 colon and in the experiment with TK-10 renal was more than 100 µM throughout.
As for `CO/C(=C1/NC(=O)C(Cc2ccc(O)c(Br)c2)N(C)C(=O)C(C)NC(=O)CCC/C=C(\C)CCC(C)OC1=O)c1ccccc1` (stereo unspecified), the GI50 in the experiment with 786-0 renal was 0.0263 µM; with HS 578T breast, 0.0225 µM; in the experiment on LOX IMVI melanoma, 0.0159 µM; in the experiment with MCF7 breast, less than 0.0165 µM; in the experiment with NCI-H226 lung, 0.365 µM; in the experiment on NCI-H23 lung it was 0.106 µM. In addition, the figures for the GI50 with NCI-H522 lung, with SF-539 CNS and in the experiment with SW-620 colon were 0.0281 µM, 0.0281 µM and 0.0146 µM, respectively. Moreover, the TGI turned out to be 0.0692 µM in the experiment on 786-0 renal; 0.0553 µM in the experiment with HS 578T breast; 0.653 µM in the experiment with LOX IMVI melanoma; 1.9 µM with MCF7 breast; 3.17 µM in the experiment with NCI-H226 lung; 22.4 µM in the experiment with NCI-H23 lung. Besides, the TGI stood at 0.438 µM in the experiment with NCI-H522 lung, 0.783 µM in the experiment on SF-539 CNS and 33.3 µM in the experiment on SW-620 colon.
Consider `CCc1ncc(CO)n1Cc1cccc2ccccc12`, for which the TGI in the experiment with 786-0 renal, in the experiment with HS 578T breast, in the experiment on MCF7 breast, in the experiment on NCI-H226 lung, in the experiment with NCI-H23 lung and in the experiment on NCI-H522 lung was more than 100 µM each time. Further, the TGI in the experiment with SF-539 CNS, in the experiment on SW-620 colon and in the experiment on TK-10 renal was more than 100 µM throughout.
On to `CCN(CC)CC(O)c1cc(-c2ccc(Cl)cc2)nc2c(C)c(Cl)ccc12` (stereo unspecified), for which the GI50 in the experiment on 786-0 renal was 1.69 µM; in the experiment on HS 578T breast, 1.87 µM; in the experiment with LOX IMVI melanoma, 1.41 µM; in the experiment with MCF7 breast it was 1.5 µM; in the experiment on NCI-H226 lung, 1.65 µM; in the experiment on NCI-H23 lung, 1.78 µM. Moreover, the GI50 was 1.85 µM in the experiment with NCI-H522 lung, 1.49 µM in the experiment with SF-539 CNS and 1.85 µM with TK-10 renal. The TGI with 786-0 renal amounted to 3.18 µM; with HS 578T breast it was 4.33 µM; in the experiment on LOX IMVI melanoma it was 2.77 µM; in the experiment on MCF7 breast it was 2.9 µM; in the experiment on NCI-H226 lung, 3.18 µM; with NCI-H23 lung it was 3.3 µM. In addition, the TGI in the experiment on NCI-H522 lung amounted to 3.29 µM; in the experiment on SF-539 CNS it was 3.03 µM; in the experiment on TK-10 renal, 3.28 µM.
Consider `COc1ccc(/C=C/C(=O)/C=C(O)/C=C/c2ccc(OC)c(OC)c2)cc1OC`, for which the GI50 with 786-0 renal is 3.03 µM; in the experiment with HS 578T breast, 3.68 µM; in the experiment on LOX IMVI melanoma, 2.54 µM; in the experiment with MCF7 breast it was 0.493 µM; in the experiment with NCI-H226 lung, 3.59 µM; in the experiment with NCI-H23 lung, 3.94 µM. The GI50 with NCI-H522 lung is 2.52 µM; in the experiment on SW-620 colon it was 1.85 µM; in the experiment with TK-10 renal, 4.03 µM. Further, the TGI was 25.7 µM with 786-0 renal; more than 100 µM with HS 578T breast; 17.9 µM in the experiment with LOX IMVI melanoma; more than 100 µM with MCF7 breast; more than 100 µM in the experiment on NCI-H226 lung; 21.8 µM in the experiment with NCI-H23 lung. Besides, the TGI in the experiment on NCI-H522 lung was 7.53 µM; with SW-620 colon, more than 100 µM; in the experiment with TK-10 renal, more than 100 µM.
Consider `CN1CCN(CCC=C2c3ccccc3Sc3ccc(S(=O)(=O)N(C)C)cc32)CC1`, for which the GI50 was 4.12 µM and 6.73 µM in the experiment with 786-0 renal; 3.4 µM and 3 µM in the experiment with HS 578T breast; 1.7 µM and 2.79 µM with LOX IMVI melanoma; 1.91 µM and 2.81 µM in the experiment on MCF7 breast; 7.04 µM and 15.9 µM in the experiment on NCI-H226 lung; 12.2 µM and 15.7 µM in the experiment on NCI-H23 lung. In addition, the GI50 in the experiment on NCI-H522 lung was 1.87 µM and 8.15 µM; in the experiment with SW-620 colon, 3.58 µM and 2.85 µM; with TK-10 renal, 2.22 µM and 7.92 µM. In addition, the TGI in the experiment on 786-0 renal is 16.2 µM and 20.8 µM; with HS 578T breast, 23.2 µM and 14.8 µM; in the experiment with LOX IMVI melanoma, 3.7 µM and 8.66 µM; in the experiment with MCF7 breast, 4 µM and 14 µM; in the experiment with NCI-H226 lung, 26.9 µM and 33.7 µM; in the experiment with NCI-H23 lung it was 71 µM and 52.7 µM. Further, the TGI in the experiment with NCI-H522 lung was 3.83 µM and 28.1 µM; with SW-620 colon, 19.9 µM and 8.62 µM; in the experiment on TK-10 renal, 5.05 µM and 23.8 µM.
`COC(=O)c1c2c(c(C)[n+]([O-])c1C)C(=O)C(NCc1ccc(O)cc1)=CC2=O`: the GI50 with 786-0 renal was 2.11 µM; in the experiment with HS 578T breast, 2.3 µM; with LOX IMVI melanoma, 0.938 µM; in the experiment on MCF7 breast, 0.416 µM; with NCI-H226 lung, 2.06 µM; in the experiment with NCI-H23 lung, 1.43 µM. The GI50 with NCI-H522 lung is 1.43 µM; with SF-539 CNS it was 1.68 µM; in the experiment on SW-620 colon it was 0.934 µM. For the same molecule, the TGI with 786-0 renal worked out at 4.87 µM; in the experiment on HS 578T breast it was 6.98 µM; with LOX IMVI melanoma, 2.24 µM; in the experiment with MCF7 breast, 2 µM; in the experiment with NCI-H226 lung it was 4.36 µM; with NCI-H23 lung it was 3.5 µM. Further, the values for the TGI with NCI-H522 lung, in the experiment with SF-539 CNS and with SW-620 colon were 3.49 µM, 3.07 µM and 2.72 µM, respectively.
On to `Cc1cc(-c2cc(OC(=O)c3ccccc3)ccc2Cl)cc2nnc(Nc3ccc(OCCN4CCCC4)cc3)nc12`, for which the GI50 in the experiment on 786-0 renal is 1.89 µM; with HS 578T breast, 1.58 µM; with LOX IMVI melanoma, 1.45 µM; in the experiment with MCF7 breast it was 0.186 µM; in the experiment on NCI-H23 lung, 1.72 µM; in the experiment with NCI-H522 lung it was 1.37 µM. The GI50 in the experiment on SF-539 CNS was 1.29 µM; with SW-620 colon, 0.265 µM; in the experiment with TK-10 renal, 1.63 µM. Moreover, the TGI with 786-0 renal turned out to be 3.5 µM; in the experiment with HS 578T breast, 3.94 µM; in the experiment on LOX IMVI melanoma, 2.95 µM; with MCF7 breast it was 0.403 µM; with NCI-H23 lung, 3.66 µM; with NCI-H522 lung, 3.08 µM. The results for the TGI with SF-539 CNS, with SW-620 colon and in the experiment with TK-10 renal were 2.57 µM, 0.571 µM and 3.03 µM, respectively.
